Assay results as given in US20090156646A1, “PYRIDYLPHENOL COMPOUND AND USE THEREOF” (TAKEDA PHARMACEUTICAL COMPANY LIMITED, priority 2005, published 2009).

Assays:
[1] = biological target: T1, human metastin receptor hOT7T175 (Homo sapiens, UniProt Q969F8, L364H); assay: binding inhibiting activity: 125I-metastin (40-54) binding to cell membrane fraction of h175 KB34 cells; conditions: room temperature 60 minutes, read-out: binding inhibiting activity, represented by the IC50 value
T1 construct: encoding the entire length of human metastin receptor hOT7T175; expressed in transfected cells; host or cells: CHO/dhFr- cells (ATCC #CRL-9096) stably transfected with pAKKO-hOT7T175; clone h175-16 was used as whole cells for FLIPR
Procedure, shortened: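 Membranes came from CHO/dhfr− cells stably expressing human hOT7T175 (clone h175 KB34) and were diluted 250-fold for use. Binding of 125I-metastin (40-54) was run in 20 mM Tris, 2.5 mM magnesium acetate and 2 mM EGTA, pH 7.4, with protease inhibitors, either without BSA or with 1 mg/ml BSA.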

T1 sequence (Q969F8 whole entry L364H): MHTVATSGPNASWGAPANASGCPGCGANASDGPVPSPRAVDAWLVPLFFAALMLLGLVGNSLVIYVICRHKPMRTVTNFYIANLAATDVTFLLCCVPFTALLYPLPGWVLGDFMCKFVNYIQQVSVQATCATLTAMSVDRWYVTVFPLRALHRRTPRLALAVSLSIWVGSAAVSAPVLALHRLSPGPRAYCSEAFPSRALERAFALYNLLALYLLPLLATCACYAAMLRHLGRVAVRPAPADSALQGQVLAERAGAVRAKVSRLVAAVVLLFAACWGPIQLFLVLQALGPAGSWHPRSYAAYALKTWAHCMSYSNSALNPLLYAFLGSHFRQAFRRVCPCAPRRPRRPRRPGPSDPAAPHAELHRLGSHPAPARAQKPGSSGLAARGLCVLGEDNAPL

IC50 [1] [µM] | melting point [°C] | Compound
≤ 10 | 182 to 187 | CCN1CCC[C@H]1CC(=O)Nc1cccc(-c2cc(-c3ccc(F)cc3O)nc(NC(=O)c3ccco3)c2C#N)c1.Cl [Example 336, N-[3-cyano-4-[3-({[(2S)-1-ethylpyrrolidin-2-yl]acetyl}amino)phenyl]-6-(4-fluoro-2-hydroxyphenyl)pyridin-2-yl]-2-furamide hydrochloride]
≤ 10 | 198 to 200 | CCCN(CCC)C(C)CC(=O)Nc1cccc(-c2cc(-c3ccc(F)cc3O)nc(NC(=O)c3ccco3)c2C#N)c1.Cl (centres unmarked) [Example 318, N-[3-cyano-4-(3-{[3-(dipropylamino)butanoyl]amino}phenyl)-6-(4-fluoro-2-hydroxyphenyl)pyridin-2-yl]-2-furamide hydrochloride]
≤ 10 | 241 to 244 | Cl.N#Cc1c(-c2cccc(NC(=O)[C@H]3CCCN3)c2)cc(-c2ccc(F)cc2O)nc1NC(=O)c1nccs1 [Example 292, N-(3-{3-cyano-6-(4-fluoro-2-hydroxyphenyl)-2-[(1,3-thiazol-2-ylcarbonyl)amino]pyridin-4-yl}phenyl)-D-prolinamide hydrochloride]
≤ 10 | 210 to 217 | COc1ccccc1C(=O)Nc1nc(-c2ccc(Cl)cc2O)cc(-c2cccc(C(=O)NCC3CCCCN3)c2)c1C#N.Cl (centres unmarked) [Example 71, N-[6-(4-chloro-2-hydroxyphenyl)-3-cyano-4-(3-{[(piperidine-2-ylmethyl)amino]carbonyl}phenyl)pyridin-2-yl]-2-methoxybenzamide hydrochloride]
≤ 10 | 181 to 186 | Cl.N#Cc1c(-c2cccc(CNC(=O)CN)c2)cc(-c2ccccc2O)nc1NC(=O)c1cccs1 [Example 43, N-[3-cyano-4-{3-[(glycylamino)methyl]phenyl}-6-(2-hydroxyphenyl)pyridin-2-yl]thiophene-2-carboxamide hydrochloride]
≤ 10 | 256 to 257 | CC(C)(CN)CNC(=O)c1cccc(-c2cc(-c3ccc(F)cc3O)nc(NC(=O)c3ccco3)c2C#N)c1.Cl [Example 77, N-[4-(3-{[(3-amino-2,2-dimethylpropyl)amino]carbonyl}phenyl)-3-cyano-6-(4-fluoro-2-hydroxyphenyl)pyridin-2-yl]-2-furamide hydrochloride]
≤ 10 | 203 to 211 | Cl.N#Cc1c(-c2cccc(NC(=O)CCN)c2)cc(-c2ccc(Br)cc2O)nc1NC(=O)c1cccs1 [Example 61, N-{4-[3-(β-alanylamino)phenyl]-6-(4-bromo-2-hydroxyphenyl)-3-cyanopyridin-2-yl}thiophene-2-carboxamide hydrochloride]
≤ 10 | 234 to 237 | COc1ccccc1C(=O)Nc1nc(-c2ccc(Cl)cc2O)cc(-c2cccc(C(=O)NCCCn3ccnc3)c2)c1C#N.Cl [Example 70, N-{6-(4-chloro-2-hydroxyphenyl)-3-cyano-4-[3-({[3-(1H-imidazole-1-yl)propyl]amino}carbonyl)phenyl]pyridin-2-yl}-2-methoxybenzamide hydrochloride]
≤ 10 | 252 to 255 | Cl.N#Cc1c(-c2cccc(C(=O)NCCN)c2)cc(-c2ccc(Cl)cc2O)nc1NC(=O)c1ccco1 [Example 86, N-[4-(3-{[(2-aminoethyl)amino]carbonyl}phenyl)-6-(4-chloro-2-hydroxyphenyl)-3-cyanopyridin-2-yl]-2-furamide hydrochloride]
≤ 10 | 213 to 215 | CC(N)CC(=O)Nc1cccc(-c2cc(-c3ccc(F)cc3O)nc(NC(=O)c3ccco3)c2C#N)c1.Cl (centres unmarked) [Example 337, N-[4-{3-[(3-aminobutanoyl)amino]phenyl}-3-cyano-6-(4-fluoro-2-hydroxyphenyl)pyridin-2-yl]-2-furamide hydrochloride]
≤ 10 | 204 to 210 | Cc1ccc(-c2cc(-c3cccc(NC(=O)CCN)c3)c(C#N)c(NC(=O)c3cccs3)n2)c(O)c1.Cl [Example 57, N-{4-[3-(β-alanylamino)phenyl]-3-cyano-6-(2-hydroxy-4-methylphenyl)pyridin-2-yl}thiophene-2-carboxamide hydrochloride]
≤ 10 | 210 to 216 | C[C@@H](N)C(=O)Nc1cccc(-c2cc(-c3ccc(Cl)cc3O)nc(NC(=O)c3ccco3)c2C#N)c1.Cl [Example 237, N-[4-[3-(alanylamino)phenyl]-6-(4-chloro-2-hydroxyphenyl)-3-cyanopyridin-2-yl]-2-furamide hydrochloride]
≤ 10 | 173 to 180 | Cl.N#Cc1c(-c2cccc(CNC(=O)CCN)c2)cc(-c2ccccc2O)nc1NC(=O)c1cccs1 [Example 44, N-[4-{3-[(β-alanylamino)methyl]phenyl}-3-cyano-6-(2-hydroxyphenyl)pyridin-2-yl]thiophene-2-carboxamide hydrochloride]
≤ 10 | 214 to 217 | CCCC(N)CC(=O)Nc1cccc(-c2cc(-c3ccc(F)cc3O)nc(NC(=O)c3ccco3)c2C#N)c1.Cl (centres unmarked) [Example 265, N-[4-{3-[(3-aminohexanoyl)amino]phenyl}-3-cyano-6-(4-fluoro-2-hydroxyphenyl)pyridin-2-yl]-2-furamide hydrochloride]
≤ 10 | 237 to 239 | Cl.N#Cc1c(-c2cccc(NC(=O)[C@H]3CCCC[C@H]3N)c2)cc(-c2ccc(F)cc2O)nc1NC(=O)c1ccco1 [Example 283, N-{4-[3-({[(1S,2R)-2-aminocyclohexyl]carbonyl}amino)phenyl]-3-cyano-6-(4-fluoro-2-hydroxyphenyl)pyridin-2-yl}-2-furamide hydrochloride]
≤ 10 | 190 to 196 | Cl.N#Cc1c(-c2cccc(NC(=O)C3(N)CC3)c2)cc(-c2ccc(Cl)cc2O)nc1NC(=O)c1ccco1 [Example 69, N-[4-(3-{[(1-aminocyclopropyl)carbonyl]amino}phenyl)-6-(4-chloro-2-hydroxyphenyl)-3-cyanopyridin-2-yl]-2-furamide hydrochloride]
≤ 10 | 201 to 203 | CCN1CCCCC1CC(=O)Nc1cccc(-c2cc(-c3ccc(F)cc3O)nc(NC(=O)c3ccco3)c2C#N)c1.Cl (centres unmarked) [Example 322, N-[3-cyano-4-(3-{[(1-ethylpiperidin-2-yl)acetyl]amino}phenyl)-6-(4-fluoro-2-hydroxyphenyl)pyridin-2-yl]-2-furamide hydrochloride]
≤ 10 | 215 to 217 | CN1C[C@H](O)C[C@H]1C(=O)Nc1cccc(-c2cc(-c3ccc(F)cc3O)nc(NC(=O)c3ccco3)c2C#N)c1.Cl [Example 299, (4R)—N-{3-[3-cyano-6-(4-fluoro-2-hydroxyphenyl)-2-(2-furoylamino)pyridin-4-yl]phenyl}-4-hydroxy-1-methyl-L-prolinamide hydrochloride]
≤ 10 | 265 to 268 | CC(C)(CN)CNC(=O)c1cccc(-c2cc(-c3ccc(F)cc3O)nc(NC(=O)c3cccs3)c2C#N)c1.Cl [Example 80, N-[4-(3-{[(3-amino-2,2-dimethylpropyl)amino]carbonyl}phenyl)-3-cyano-6-(4-fluoro-2-hydroxyphenyl)pyridin-2-yl]thiophene-2-carboxamide hydrochloride]
≤ 10 | 240 to 241 | Cl.N#Cc1c(-c2cccc(C(=O)NC3CCNC3)c2)cc(-c2ccc(F)cc2O)nc1NC(=O)c1cccs1 (centres unmarked) [Example 79, N-(3-cyano-6-(4-fluoro-2-hydroxyphenyl)-4-{3-[(pyrrolidine-3-ylamino)carbonyl]phenyl}pyridin-2-yl)thiophene-2-carboxamide hydrochloride]
≤ 10 | 269 to 270 | Cl.N#Cc1c(-c2cccc(NC(=O)CCN)c2)cc(-c2ccc(F)cc2O)nc1NC(=O)c1ccco1 [Example 68, N-{4-[3-(β-alanylamino)phenyl]-3-cyano-6-(4-fluoro-2-hydroxyphenyl)pyridin-2-yl}-2-furamide hydrochloride]
≤ 10 | 166 to 170 | Cl.N#Cc1c(-c2cccc(NC(=O)CCCn3ccnc3)c2)cc(-c2ccc(Cl)cc2O)nc1NC(=O)c1ccco1 [Example 242, N-[6-(4-chloro-2-hydroxyphenyl)-3-cyano-4-(3-{[4-(1H-imidazole-1-yl)butanoyl]amino}phenyl)pyridin-2-yl]-2-furamide hydrochloride]
≤ 10 | 260 to 262 | Cl.N#Cc1c(-c2cccc(NC(=O)[C@@H]3C[C@@H](O)CN3)c2)cc(-c2ccc(F)cc2O)nc1NC(=O)c1ccco1 [Example 298, (4R)—N-{3-[3-cyano-6-(4-fluoro-2-hydroxyphenyl)-2-(2-furoylamino)pyridin-4-yl]phenyl}-4-hydroxy-L-prolinamide hydrochloride]
≤ 10 | 228 to 229 | Cl.N#Cc1c(-c2cccc(C(=O)NCCN)c2)cc(-c2ccc(F)cc2O)nc1NC(=O)c1cccs1 [Example 81, N-[4-(3-{[(2-aminoethyl)amino]carbonyl}phenyl)-3-cyano-6-(4-fluoro-2-hydroxyphenyl)pyridin-2-yl]thiophene-2-carboxamide hydrochloride]
≤ 10 | 254 to 256 | Cl.N#Cc1c(-c2cccc(C(=O)NC3CCNCC3)c2)cc(-c2ccccc2O)nc1NC(=O)c1cccs1 [Example 7, N-(3-cyano-6-(2-hydroxyphenyl)-4-{3-[(piperidin-4-ylamino)carbonyl]phenyl}pyridin-2-yl)thiophene-2-carboxamide hydrochloride]
